Assay results reported in patent US11160887B2, “Compositions for use in diagnosing and treating melanoma, including metastatic melanoma and methods related to same” (UNM RAINFOREST INNOVATIONS, priority 2008, dated 2021).

How the values were obtained:
[1] = tested on: melanoma metastases smaller than 5 mm; details: literature (5); cited from earlier work
[2] = tested on: B16/F10 pulmonary melanoma metastases; assay type: in vivo, mouse
Protocol: Metastatic Melanoma Imaging: A pulmonary metastatic melanoma-bearing mouse was used for [^18F]FDG PET imaging 16 days after the cell injection and used for ^111In-DOTA-GlyGlu-CycMSH SPECT/CT imaging on next day (a time interval of 26 h) to compare the difference in detection efficiency between [^18F]FDG and ^111In-DOTA-GlyGlu-CycMSH. The mouse was injected with 35.15 MBq of commercial [^18F]FDG (Biotech, N. Mex.) via the tail vein. At 1 h post-injection, the mouse was anesthetized with 1.5% isoflurane and placed in the prone position near the center of the field of view of small animal PET (LabPET™) (Gamma Medica-Ideas, Sherbrooke, Quebec). A 30-min static scan was acquired, and the image was reconstructed by maximum likelihood estimation method (MLEM). The mouse was returned to the cage for recovery after the ^18F-FDG PET imaging study was completed. The same mouse was injected with 24.05 MBq of ^111In-DOTA-GlyGlu-CycMSH via the tail vein 24 h after the ^18F-FDG PET imaging study. The mouse was anesthetized with 1.5% isoflurane for small animal SPECT/CT (Nano-SPECT/CT®, Bioscan) imaging 2 h post-injection. The 6-min CT imaging was immediately followed by the focused SPECT imaging of lung. The SPECT scans of 24 projections were acquired and total acquisition time was 45 min. After the focused lung imaging, the mouse was sacrificed with CO2 inhalation for whole-body SPECT/CT imaging. The 9-min CT imaging was immediately followed by the SPECT imaging of whole-body. Reconstructed data from SPECT and CT were visualized and co-registered using InVivoScope (Bioscan, Washington D.C.). Necropsy analysis of the mouse was performed to confirm the pulmonary metastatic melanoma lesions after the SPECT/CT imaging studies were completed. To monitor the development of pulmonary melanoma metstases with ^111In-DOTA-GlyGlu-CycMSH, a pulmonary metastatic melanoma-bearing mouse was injected with 10.36 MBq of ^111In-DOTA-GlyGlu-CycMSH through the tail vein for small animal SPECT/CT imaging 20 days after the cell injection. […]

accumulation of activity in normal organs in whole-body image ([2]; mouse, in vivo): much higher normal organ accumulation
Substance: 2-[^18F]fluoro-2-deoxy-D-glucose [[^18F]FDG]
melanoma metastases smaller than 5 mm detected by PET imaging [1]: 23%
detection of pulmonary metastatic melanoma lesions by imaging ([2]; SPECT/CT 2 h post-injection (111In peptide) or PET 1 h post-injection ([18F]FDG), same mouse, 16-17 days post the cell injection): failed in identifying the pulmonary melanoma metastases
